According to patent EP0292291B1, “Linear and cyclic analogs of alpha-msh fragments with extraordinary potency” (UNIVERSITY PATENTS, INC., priority 1987, dated 1988):
Where two headings read alike, the source gives them in different places. Positions of bridges follow the written chain, without caps; N, C: chain ends. Non-standard residues stand in square brackets, D forms with d. Residues, ends and D or L forms follow the SMILES beside them. Nle = CCCC[C@H](N)C(=O)O; Dab = NCC[C@H](N)C(=O)O

Assays:
[1] = test system: Lizard (Anolis carolinensis) Skin; assay type: cell-based
Source text: (§1) Based upon the structural relationship of alpha-MSH (and its analogues and fragments) to its biological potency, using in vitro a frog skin bioassay system, the active site of alpha-MSH appears to be the common active core sequence suitably modified Ac-Met-Glu-His-Phe-Arg-Trp-Gly-NH₂. This fragment (Alpha-MSH₄₋₁₀) has been synthesized and tested for its melanocyte stimulating activity in frog skin and shown to be a weak agonist when compared to the native hormone. The amino acid exchanges in position 5(Glu) and 10(Gly) have not, previous to the making of the present invention, been investigated. […] The following table summarizes some of these studies.
(§2) The biological potencies of alpha-MSH, the linear, and the cyclic analogues were determined by their ability to stimulate melanosome dispersion in vitro in the frog and lizard bioassays. These in vitro assays provide clear cut dose response curves (between 2.5 x 10⁻¹¹ and 4 x 10⁻¹⁰ M) and can detect minimal concentration of alpha-MSH of about 10⁻¹¹ M. The assays are based upon the centrifugal dispersion of melanosomes (melanin granules) within the dendritic processes of integumental dermal melanophores leading to darkening of the skin. All the test solutions were prepared via serial dilutions from a stock solution (10⁻⁴ M). The frogs (Rans pipiens) used in these evaluations were obtained from Kons Scientific, Germantown, WI, and the lizards (Anolis carolinensis) were from the Snake Farm, La Place, LA.

[2] = test system: Frog (Rana pipiens) Skin; assay type: cell-based
Source text: as §1, §2

[3] = linear analogues, P = prolonged action
[4] = linear analogues, relative to alpha-MSH = 1.0
[5] = cyclic analogues, p = prolonged action
[6] = cyclic analogues, relative to alpha-MSH = 1.0

| SMILES | Residual Activity Lizard [1, 3] | Biological Potency Lizard [1, 4] | Residual Activity Frog [2, 3] | Biological Potency Frog [2, 4] | Residual Activity Lizard [1, 5] | Biological Potency Lizard [1, 6] | Residual Activity Frog [2, 5] | Biological Potency Frog [2, 6] | Biological Potency Lizard [1] | Biological Potency Frog [2] |
| --- | --- | --- | --- | --- | --- | --- | --- | --- | --- | --- |
| CCCC[C@H](NC(=O)[C@H](CO)NC(=O)[C@H](Cc1ccc(O)cc1)NC(=O)[C@H](CO)NC(C)=O)C(=O)N[C@@H](CC(=O)O)C(=O)N[C@@H](Cc1c[nH]cn1)C(=O)N[C@H](Cc1ccccc1)C(=O)N[C@@H](CCCNC(=N)N)C(=O)N[C@@H](Cc1c[nH]c2ccccc12)C(=O)N[C@@H](CCCCN)C(=O)NCC(=O)N1CCC[C@H]1C(=O)N[C@H](C(N)=O)C(C)C [Analogue 2] (Ac-SYS[Nle]DH[dF]RWKGPV-NH2) | P(-) | 8.0 | P(+) | 9.0 |  |  |  |  |  |  |
| CCCC[C@H](NC(C)=O)C(=O)N[C@H]1CC(=O)NCCC[C@@H](C(N)=O)NC(=O)[C@H](Cc2c[nH]c3ccccc23)NC(=O)[C@H](CCCNC(=N)N)NC(=O)[C@@H](Cc2ccccc2)NC(=O)[C@H](Cc2c[nH]cn2)NC1=O [Analogue 18] |  |  |  |  | p(-) | 20.0 | p(-) | 1.0 |  |  |
| CCCC[C@H](NC(C)=O)C(=O)N[C@@H](CCC(=O)O)C(=O)N[C@@H](Cc1c[nH]cn1)C(=O)N[C@@H](Cc1ccccc1)C(=O)N[C@@H](CCCNC(=N)N)C(=O)N[C@@H](Cc1c[nH]c2ccccc12)C(=O)N[C@@H](CCCCN)C(N)=O [Analogue 13] | P(-) | 0.08 | P(+) | 0.001 |  |  |  |  |  |  |
| CCCC[C@H](NC(C)=O)C(=O)N[C@@H](CC(=O)O)C(=O)N[C@@H](Cc1c[nH]cn1)C(=O)N[C@H](Cc1ccccc1)C(=O)N[C@@H](CCCNC(=N)N)C(=O)N[C@@H](Cc1c[nH]c2ccccc12)C(=O)N[C@@H](CCN)C(N)=O [Analogue 11] | P(-) | 50.0 | P(-) | 0.9 |  |  |  |  |  |  |
| CCCC[C@H](NC(C)=O)C(=O)N[C@@H](CCC(=O)O)C(=O)N[C@@H](Cc1c[nH]cn1)C(=O)N[C@H](Cc1ccccc1)C(=O)N[C@@H](CCCNC(=N)N)C(=O)N[C@@H](Cc1c[nH]c2ccccc12)C(=O)N[C@@H](CCCCN)C(=O)NCC(=O)N1CCC[C@H]1C(=O)N[C@H](C(N)=O)C(C)C [Analogue 3] (Ac-[Nle]EH[dF]RWKGPV-NH2) | P(+) | 8.0 | P(+) | 0.8 |  |  |  |  |  |  |
| CCCC[C@H](NC(C)=O)C(=O)N[C@@H](CC(=O)O)C(=O)N[C@@H](Cc1c[nH]cn1)C(=O)N[C@@H](Cc1ccccc1)C(=O)N[C@@H](CCCNC(=N)N)C(=O)N[C@@H](Cc1c[nH]c2ccccc12)C(=O)N[C@@H](CCCCN)C(N)=O [Analogue 14] | P(-) | 0.08 |  |  |  |  |  |  |  |  |
| CCCC[C@H](NC(C)=O)C(=O)N[C@H]1CC(=O)NCC[C@@H](C(N)=O)NC(=O)[C@H](Cc2c[nH]c3ccccc23)NC(=O)[C@H](CCCNC(=N)N)NC(=O)[C@@H](Cc2ccccc2)NC(=O)[C@H](Cc2c[nH]cn2)NC1=O [Analogue 19] |  |  |  |  | p(-) | 5.0 | p(-) | 1.0 |  |  |
| CCCC[C@H](NC(C)=O)C(=O)N[C@@H](CC(=O)O)C(=O)N[C@@H](Cc1c[nH]cn1)C(=O)N[C@H](Cc1ccccc1)C(=O)N[C@@H](CCCNC(=N)N)C(=O)N[C@@H](Cc1c[nH]c2ccccc12)C(=O)N[C@@H](CCCCN)C(N)=O [Analogue 7] | P(-) | 8.0 |  |  |  |  |  |  |  |  |
| CCCC[C@H](NC(C)=O)C(=O)N[C@@H](CC(=O)O)C(=O)N[C@@H](Cc1c[nH]cn1)C(=O)N[C@H](Cc1ccccc1)C(=O)N[C@@H](CCCNC(=N)N)C(=O)N[C@@H](Cc1c[nH]c2ccccc12)C(=O)N[C@@H](CCCCN)C(=O)NCC(=O)N1CCC[C@H]1C(=O)N[C@H](C(N)=O)C(C)C [Analogue 4] (Ac-[Nle]DH[dF]RWKGPV-NH2) | P(+) | 10.0 | P(+) | 1.0 |  |  |  |  |  |  |
| CCCC[C@H](NC(C)=O)C(=O)N[C@H]1CCC(=O)NCCCC[C@@H](C(=O)NCC(=O)N2CCC[C@H]2C(=O)N[C@H](C(N)=O)C(C)C)NC(=O)[C@H](Cc2c[nH]c3ccccc23)NC(=O)[C@H](CCCNC(=N)N)NC(=O)[C@@H](Cc2ccccc2)NC(=O)[C@H](Cc2c[nH]cn2)NC1=O [Analogue 15] (Ac-[Nle]EH[dF]RWKGPV-NH2; lactam 2-7) |  |  |  |  | p(+) |  | p(+) |  | 6.0 | 1.0 |
| CCCC[C@H](NC(C)=O)C(=O)N[C@@H](CC(=O)O)C(=O)N[C@@H](Cc1c[nH]cn1)C(=O)N[C@H](Cc1ccccc1)C(=O)N[C@@H](CCCNC(=N)N)C(=O)N[C@@H](Cc1c[nH]c2ccccc12)C(=O)NCC(N)=O [Analogue 5] | P(-) | 8.0 | P(-) | 0.1 |  |  |  |  |  |  |
| CCCC[C@H](NC(C)=O)C(=O)N[C@@H](CC(=O)O)C(=O)N[C@@H](Cc1c[nH]cn1)C(=O)N[C@H](Cc1ccccc1)C(=O)N[C@@H](CCCNC(=N)N)C(=O)N[C@@H](Cc1c[nH]c2ccccc12)C(=O)N[C@@H](CCCN)C(N)=O [Analogue 9] | P(-) | 10.0 |  | 0.9 |  |  |  |  |  |  |
| CCCC[C@H](NC(C)=O)C(=O)N[C@H]1CCC(=O)NCCCC[C@@H](C(N)=O)NC(=O)[C@H](Cc2c[nH]c3ccccc23)NC(=O)[C@H](CCCNC(=N)N)NC(=O)[C@@H](Cc2ccccc2)NC(=O)[C@H](Cc2c[nH]cn2)NC1=O [Analogue 16] |  |  |  |  | p(+) | 9.0 | p(+) | 0.5 |  |  |
| CCCC[C@H](NC(C)=O)C(=O)N[C@@H](CCC(=O)O)C(=O)N[C@@H](Cc1c[nH]cn1)C(=O)N[C@H](Cc1ccccc1)C(=O)N[C@@H](CCCNC(=N)N)C(=O)N[C@@H](Cc1c[nH]c2ccccc12)C(=O)N[C@@H](CCCCN)C(N)=O [Analogue 6] | P(-) | 8.0 | P(-) | 0.2 |  |  |  |  |  |  |
| CCCC[C@H](NC(=O)[C@H](CO)NC(=O)[C@H](Cc1ccc(O)cc1)NC(=O)[C@H](CO)NC(C)=O)C(=O)N[C@@H](CCC(=O)O)C(=O)N[C@@H](Cc1c[nH]cn1)C(=O)N[C@H](Cc1ccccc1)C(=O)N[C@@H](CCCNC(=N)N)C(=O)N[C@@H](Cc1c[nH]c2ccccc12)C(=O)N[C@@H](CCCCN)C(=O)NCC(=O)N1CCC[C@H]1C(=O)N[C@H](C(N)=O)C(C)C [Analogue 1] (Ac-SYS[Nle]EH[dF]RWKGPV-NH2) | P(-) | 8.0 | P(+) | 6.0 |  |  |  |  |  |  |
| CCCC[C@H](NC(C)=O)C(=O)N[C@H]1CC(=O)NC[C@@H](C(N)=O)NC(=O)[C@H](Cc2c[nH]c3ccccc23)NC(=O)[C@H](CCCNC(=N)N)NC(=O)[C@@H](Cc2ccccc2)NC(=O)[C@H](Cc2c[nH]cn2)NC1=O [Analogue 20] |  |  |  |  | p(-) | 5.0 | p(-) | 0.01 |  |  |
| CCCC[C@H](NC(C)=O)C(=O)N[C@@H](CCC(=O)O)C(=O)N[C@@H](Cc1c[nH]cn1)C(=O)N[C@H](Cc1ccccc1)C(=O)N[C@@H](CCCNC(=N)N)C(=O)N[C@@H](Cc1c[nH]c2ccccc12)C(=O)N[C@@H](CCCN)C(N)=O [Analogue 8] | P(-) | 8.0 | P(-) | 0.6 |  |  |  |  |  |  |
| CCCC[C@H](NC(C)=O)C(=O)N[C@@H](CC(=O)O)C(=O)N[C@@H](Cc1c[nH]cn1)C(=O)N[C@H](Cc1ccccc1)C(=O)N[C@@H](CCCNC(=N)N)C(=O)N[C@@H](Cc1c[nH]c2ccccc12)C(=O)N[C@@H](CN)C(N)=O [Analogue 12] | P(-) | 8.0 | P(-) | 0.2 |  |  |  |  |  |  |
| CCCC[C@H](NC(C)=O)C(=O)N[C@@H](CCC(=O)O)C(=O)N[C@@H](Cc1c[nH]cn1)C(=O)N[C@H](Cc1ccccc1)C(=O)N[C@@H](CCCNC(=N)N)C(=O)N[C@@H](Cc1c[nH]c2ccccc12)C(=O)N[C@@H](CCN)C(N)=O [Analogue 10] (Ac-[Nle]EH[dF]RW[Dab]-NH2) | P(±) | 10.0 | P(±) | 0.9 |  |  |  |  |  |  |
